Patent publication US11168089B2, “Fused pyrimidine derivatives as A2A / A2B inhibitors” (Incyte Corporation, priority 2018, dated 2021)

Legend:
[1] = biological target: human adenosine A2B receptor (Homo sapiens (Human), UniProt P29275); test: Adenosine A2B Receptor Cyclic AMP GS Assay; format: cell-based; settings: HEK-293 cells expressing human A2B receptor, agonist NECA 12 nM, cAMP accumulation; read-out: A2B_cAMP_EC50
Experimental: Example B. Adenosine A2B Receptor Cyclic AMP GS Assay
Stably transfected HEK-293 cells expressing the human adenosine A2B receptor (Perkin Elmer) were maintained in MEM culture medium with 10% FBS and 100 μg/mL Geneticin (Life Technologies). 18 to 24 hours prior to assay, geneticin was removed from culture. The cisbio cAMP-GS Dynamic kit utilizing the FRET (Fluorescence Resonance Energy Transfer) technology was used to measure cAMP accumulation in the cells. Compounds of the present disclosure at an appropriate concentration were mixed with 10000 cells/well in white 96 well half area plates (Perkin Elmer) for 30 min at room temperature gently shaking. Agonist, NECA (R&D Technologies) at 12 nM was added to each well for 60 min at room temperature gently shaking. Detection reagents, d2-labeled cAMP (acceptor) and anti-cAMP cryptate (donor) were added to each well for 60 min at RT gently shaking. Plates were read on Pherastar (BMG Labtech), fluorescence ratio 665/620 was calculated and EC50 determination was performed by fitting the curve of percent of control versus the log of the compound concentration using GraphPad Prism.

Adenosine A2A receptor = Adenosine A2A receptor (Homo sapiens (Human), UniProt P29274); test: A2A Tag-Lite HTRF assay; format: binding; settings: Tag-Lite Adenosine A2A labeled cells, displacement of A2A Receptor Red antagonist fluorescent ligand 12.5 nM; read-out: A2A_Ki
Sequence of Adenosine A2A receptor (P29274 whole entry): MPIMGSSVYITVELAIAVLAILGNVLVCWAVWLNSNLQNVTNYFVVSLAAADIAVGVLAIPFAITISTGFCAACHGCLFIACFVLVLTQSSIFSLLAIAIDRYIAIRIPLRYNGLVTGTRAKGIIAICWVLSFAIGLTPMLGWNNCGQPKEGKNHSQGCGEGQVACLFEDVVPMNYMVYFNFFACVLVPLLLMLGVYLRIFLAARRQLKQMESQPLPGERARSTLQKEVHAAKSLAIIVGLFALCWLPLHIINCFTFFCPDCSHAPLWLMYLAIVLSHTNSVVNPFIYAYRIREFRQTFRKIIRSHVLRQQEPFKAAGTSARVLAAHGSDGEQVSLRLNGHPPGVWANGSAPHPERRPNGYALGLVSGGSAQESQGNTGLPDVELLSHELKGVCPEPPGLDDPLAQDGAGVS
Source text: Example C. A2A Tag-Lite® HTRF Assay
The final concentration of DMSO was 1%.

Sequence of human adenosine A2B receptor (P29275 whole entry): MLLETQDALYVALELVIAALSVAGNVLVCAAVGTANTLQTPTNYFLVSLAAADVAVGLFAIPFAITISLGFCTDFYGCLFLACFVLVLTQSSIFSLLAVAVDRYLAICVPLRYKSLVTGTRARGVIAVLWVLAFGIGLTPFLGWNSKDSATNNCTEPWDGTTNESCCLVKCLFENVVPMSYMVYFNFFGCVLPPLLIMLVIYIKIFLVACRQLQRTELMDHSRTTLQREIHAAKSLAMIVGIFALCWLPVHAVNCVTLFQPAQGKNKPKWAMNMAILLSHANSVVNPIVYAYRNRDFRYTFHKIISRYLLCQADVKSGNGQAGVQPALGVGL

Compound | EC50 [1] | Ki (Adenosine A2A receptor)
N#Cc1cccc(-c2cc3nc(Cc4c(F)cccc4CN4CCC[C@H]4c4nn[nH]n4)nn3c(N)n2)c1F [Example 26, (S)-3-(2-(2-((2-(2H-Tetrazol-5-yl)pyrrolidin-1-yl)methyl)-6-fluorobenzyl)-5-amino-[1,2,4]triazolo[1,5-c]pyrimidin-7-yl)-2-fluorobenzonitrile] | < 10 nM | < 10 nM
CN1CCC(NCc2cccc(F)c2Cc2nc3cc(-c4cccc(C#N)c4F)nc(N)n3n2)C1=O (stereo not shown) [Example 29, 3-(5-Amino-2-(2-fluoro-6-(((1-methyl-2-oxopyrrolidin-3-yl)amino)methyl)benzyl)-[1,2,4]triazolo[1,5-c]pyrimidin-7-yl)-2-fluorobenzonitrile] | 10 to 100 nM | < 10 nM
CCN(Cc1cccc(F)c1Cc1nc2cc(-c3cccc(C#N)c3F)nc(N)n2n1)C1CCN(CC(=O)O)C1=O (stereo not shown) [Example 30, 2-(3-((2-((5-Amino-7-(3-cyano-2-fluorophenyl)-[1,2,4]triazolo[1,5-c]pyrimidin-2-yl)methyl)-3-fluorobenzyl)(ethyl)amino)-2-oxopyrrolidin-1-yl)acetic acid] | < 10 nM | < 10 nM
CCN(Cc1cccc(F)c1Cc1nc2cc(-c3cccc(C#N)c3F)nc(N)n2n1)C1CCN(C)C1=O (stereo not shown) [Example 31, 3-(5-Amino-2-(2-((ethyl(1-methyl-2-oxopyrrolidin-3-yl)amino)methyl)-6-fluorobenzyl)-[1,2,4]triazolo[1,5-c]pyrimidin-7-yl)-2-fluorobenzonitrile] | < 10 nM | < 10 nM
CCN(Cc1cccc(F)c1Cc1nc2cc(-c3cccc(C#N)c3F)nc(N)n2n1)[C@@H]1CCNC1=O [Example 32, (R)-3-(5-Amino-2-(2-((ethyl(2-oxopyrrolidin-3-yl)amino)methyl)-6-fluorobenzyl)-[1,2,4]triazolo[1,5-c]pyrimidin-7-yl)-2-fluorobenzonitrile] | 10 to 100 nM | < 10 nM
N#Cc1cccc(-c2cc3nc(NCc4cccc(-c5cnn(C6CCNCC6)c5)n4)nn3c(N)n2)c1F [Example 33, 3-(5-Amino-2-(((6-(1-(piperidin-4-yl)-1H-pyrazol-4-yl)pyridin-2-yl)methyl)amino)-[1,2,4]triazolo[1,5-c]pyrimidin-7-yl)-2-fluorobenzonitrile] | < 10 nM | < 10 nM
N#Cc1cccc(-c2cc3nc(NCc4cccc(-c5cnn(CCN6CCOCC6)c5)n4)nn3c(N)n2)c1F [Example 34, 3-(5-Amino-2-(((6-(1-(2-morpholinoethyl)-1H-pyrazol-4-yl)pyridin-2-yl)methyl)amino)-[1,2,4]triazolo[1,5-c]pyrimidin-7-yl)-2-fluorobenzonitrile] | 10 to 100 nM | < 10 nM

The next lines start with the values.

EC50 [1] | Ki (Adenosine A2A receptor) | Compound
10 to 100 nM | < 10 nM | CCN1CCC(NCc2cccc(F)c2Cc2nc3cc(-c4cccc(C#N)c4F)nc(N)n3n2)C1=O (stereo not shown) [Example 24, 3-(5-Amino-2-(2-(((1-ethyl-2-oxopyrrolidin-3-yl)amino)methyl)-6-fluorobenzyl)-[1,2,4]triazolo[1,5-c]pyrimidin-7-yl)-2-fluorobenzonitrile]
10 to 100 nM | < 10 nM | CC(=O)N[C@H]1CCN(Cc2cccc(F)c2Cc2nc3cc(-c4cccc(C#N)c4F)nc(N)n3n2)C1 [Example 25, (S)—N-(1-(2-((5-Amino-7-(3-cyano-2-fluorophenyl)-[1,2,4]triazolo[1,5-c]pyrimidin-2-yl)methyl)-3-fluorobenzyl)pyrrolidin-3-yl)acetamide]
10 to 100 nM | < 10 nM | N#Cc1cccc(-c2cc3nc(Cc4c(F)cccc4CN4CC[C@H](C#N)C4)nn3c(N)n2)c1F [Example 27, (S)-1-(2-((5-Amino-7-(3-cyano-2-fluorophenyl)-[1,2,4]triazolo[1,5-c]pyrimidin-2-yl)methyl)-3-fluorobenzyl)pyrrolidine-3-carbonitrile]
10 to 100 nM | < 10 nM | CN1CCC2(CN(Cc3cccc(F)c3Cc3nc4cc(-c5cccc(C#N)c5F)nc(N)n4n3)C2)C1=O [Example 28, 3-(5-Amino-2-(2-fluoro-6-((6-methyl-5-oxo-2,6-diazaspiro[3.4]octan-2-yl)methyl)benzyl)-[1,2,4]triazolo[1,5-c]pyrimidin-7-yl)-2-fluorobenzonitrile]
